Tested on: polymerase
Experiment: polymerase incorporation of allyl dTTP (FIG. 7 gel)
Format: biochemical
Conditions: homopolymeric A template
From the text: A polymerase incorporated “allyl dTTP” and “ext allyl dTTP” to a template and primer combination, as indicated by the arrow in FIG. 7, for up to 10 successive incorporations. The reaction conditions as well as the definitions of “allyl dTTP” and “ext allyl dTTP” are given in the right panel of FIG. 7. Moreover, “A” and “B” are referring to the optically pure diastereomers arising from the C5′ allyl carbon center.
Lanes 1 (starting from the left), 3, 5, 7, 9 and 11 were loaded with reactions run for an hour; and Lanes 2, 4, 6, 8, 10 and 12 were loaded with reactions run for 22 hours. Lanes 1 and 2 show: controls with natural dTTP without any arresting constructs (Note, bands above +10 are seen due to the use of a homopolymeric A template, a common observation). Lanes 3 and 4 show: one isomer of Allyl dTTP (“Allyl A dTTP”) is used, the isomer arise from the C-stereogenic center (marked with “+” in the structure shown on the right panel of FIG. 7). Up to +7 incorporation observed after 1 h. […] Lanes 5 and 6 show: one isomer of ext allyl dTTP (“Ext Allyl A dTTP”) is used. Up to +7 incorporation observed after 22h. Slower incorporation possibly due to increased sterics. Lanes 7 and 8 show: the other isomer of Allyl dTTP (“Allyl B dTTP”) is used. Up to +10 incorporation observed after 22h. Lanes 9 and 10 show: the other isomer of ext allyl dTTP (“Ext Allyl B dTTP”) is used. […]

SMILES: Cc1cn([C@H]2C[C@H](O)[C@@H](COP(=O)(O)OP(=O)(O)OP(=O)(O)O)O2)c(=O)[nH]c1=O [dTTP]
- incorporation observed (primer +n) (reactions run for 22 hours): above +10
- incorporation observed (primer +n) (reactions run for an hour): above +10

From US20230357307A1, “CLEAVABLE CYCLIC LOOP NUCLEOTIDES FOR NANOPORE SEQUENCING” (ILLUMINA, INC., priority 2022, published 2023)
